Experiments:
Settings in all cases: incubation time: 72 h
[1] = system: CAL-51; test: drug sensitivity score (DSS), CellTiter-Blue viability (DSS (AUC-based score)); higher = stronger viability inhibition; extreme values may be limits of the assay
Protocol: (§1)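 DSRT with the CellTiter-Blue (resazurin reduction) viability readout, fluorescence 560/590 nm, 72 h incubation. Plates were normalised to DMSO and benzethonium chloride controls. DSS is computed from the area under the fitted dose-response curve (5 or 9 concentrations).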

[2] = system: MFM-223; test: as above
Protocol: as §1

[3] = system: MDA-MB-468; test: as above
Protocol: as §1

[4] = system: CAL-148; test: as above
Protocol: as §1

[5] = system: Hs578T; test: as above
Protocol: as §1

[6] = system: HCC1143; test: as above
Protocol: as §1

[7] = system: CAL-120; test: as above
Protocol: as §1

[8] = system: BT-549; test: as above
Protocol: as §1

[9] = system: HCC1937; test: as above
Protocol: as §1

[10] = system: MDA-MB-453; test: normalised response (% of control), CellTox Green; higher = less cell death (100 = DMSO, 0 = benzethonium chloride kill control)
How it was run: (§2)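 CellTox Green fluorescence (485/520 nm) and, after 10 min at room temperature, CellTiter-Glo luminescence were read from breast cancer cell lines incubated 72 h in 384-well plates. Cells were seeded as 20 µl suspension onto compound at 5 concentrations in 10-fold steps over a 10,000-fold range chosen per compound. Each plate was normalised to 0.1 % DMSO (100) and a positive kill control (0). Values are normalised signals, one per concentration.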

[11] = system: BT-474; test: as above
How it was run: as §2

[12] = system: CAL-51; test: as above
How it was run: as §2

[13] = system: CAL-85-1; test: as above
How it was run: as §2

[14] = system: HCC1599; test: as above
How it was run: as §2

[15] = system: MCF-10A; test: as above
How it was run: as §2

[16] = system: MFM-223; test: as above
How it was run: as §2

[17] = system: MDA-MB-468; test: as above
How it was run: as §2

[18] = system: CAL-148; test: as above
How it was run: as §2

[19] = system: DU-4475; test: as above
How it was run: as §2

[20] = system: MDA-MB-436; test: as above
How it was run: as §2

[21] = system: MDA-MB-231; test: as above
How it was run: as §2

[22] = system: Hs578T; test: as above
How it was run: as §2

[23] = system: HCC1143; test: as above
How it was run: as §2

[24] = system: HDQ-P1; test: as above
How it was run: as §2

[25] = system: CAL-120; test: as above
How it was run: as §2

[26] = system: BT-549; test: as above
How it was run: as §2

[27] = system: HCC1937; test: as above
How it was run: as §2

Row | Structure (SMILES) | drug sensitivity score [1] | drug sensitivity score [2] | drug sensitivity score [3] | drug sensitivity score [4] | drug sensitivity score [5] | drug sensitivity score [6] | drug sensitivity score [7] | drug sensitivity score [8] | drug sensitivity score [9] | normalised response [10] [%] | normalised response [11] [%] | normalised response [12] [%] | normalised response [13] [%] | normalised response [14] [%] | normalised response [15] [%] | normalised response [16] [%] | normalised response [17] [%] | normalised response [18] [%] | normalised response [19] [%] | normalised response [20] [%] | normalised response [21] [%] | normalised response [22] [%] | normalised response [23] [%] | normalised response [24] [%] | normalised response [25] [%] | normalised response [26] [%] | normalised response [27] [%]
1 | O=C(CCBr)N1CCN(C(=O)CCBr)CC1 [Pipobroman] | 0 | 3.19 | 0 | 0 | 0 | 0 | 0 | 0 | 0 |  |  |  |  |  |  |  |  |  |  |  |  |  |  |  |  |  | 
2 | CNC(=O)c1cc(Oc2ccc(NC(=O)Nc3ccc(Cl)c(C(F)(F)F)c3)cc2)ccn1 [Sorafenib] | 0 |  | 0 | 0 | 0 | 0 | 0 |  | 0 |  |  |  |  |  |  |  |  |  |  |  |  |  |  |  |  |  | 
3 | Cc1c(CN2CCN(C(=O)[C@H](C)O)CC2)sc2c(N3CCOCC3)nc(-c3cnc(N)nc3)nc12 [GDC-0980] | 18.9 | 19.2 | 12.3 | 17.2 | 15.4 | 15.9 | 17.5 | 14.7 | 14.1 |  |  |  |  |  |  |  |  |  |  |  |  |  |  |  |  |  | 
4 | O=C(Nc1c[nH]nc1-c1nc2ccc(CN3CCOCC3)cc2[nH]1)NC1CC1 [AT9283] | 14 | 12.4 | 22.4 | 7.72 | 16.4 | 9.48 | 18.6 | 12.2 | 15.4 |  |  |  |  |  |  |  |  |  |  |  |  |  |  |  |  |  | 
5 | c1cc(CN2CCCNCCNCCCNCC2)ccc1CN1CCCNCCNCCCNCC1 [Plerixafor] | 0 | 0 | 0 | 0 | 0 | 0 | 0 | 0 | 0 |  |  |  |  |  |  |  |  |  |  |  |  |  |  |  |  |  | 
6 | Cn1cc(CNCC2CCN(c3ncc(C(=O)NO)cn3)CC2)c2ccccc21 | 13.7 | 14.9 | 14.1 | 22.6 | 13.1 | 18.9 | 20.2 | 8.2 | 16.5 |  |  |  |  |  |  |  |  |  |  |  |  |  |  |  |  |  | 
7 | COc1cc(CCc2cc(NC(=O)c3ccc(N4CC(C)NC(C)C4)cc3)n[nH]2)cc(OC)c1 (stereo not given) [AZD4547] | 2.97 | 15.1 | 0 | 2.37 | 0 | 0 | 0 | 0 | 0 |  |  |  |  |  |  |  |  |  |  |  |  |  |  |  |  |  | 
8 | Cc1ccc(Nc2nccc(N(C)c3ccc4c(C)n(C)nc4c3)n2)cc1S(N)(=O)=O [Pazopanib] | 0 | 11.6 | 0 | 0 | 0 | 0 | 0 | 3.13 | 0 |  |  |  |  |  |  |  |  |  |  |  |  |  |  |  |  |  | 
9 | Cc1ccc(Nc2nccc(N(C)c3ccc4c(C)n(C)nc4c3)n2)cc1S(N)(=O)=O [Pazopanib] (10000 nM) |  |  |  |  |  |  |  |  |  | 102 | 99.5 | 76.9 | 78.9 | 100 | 94.8 | 96.1 | 162 | 100 | 104 | 96.9 | 99.7 | 77.2 | 55.8 | 111 | 94 | 119 | 85.7
10 | C[C@]12O[C@H](C[C@]1(O)CO)n1c3ccccc3c3c4c(c5c6ccccc6n2c5c31)CNC4=O [Lestaurtinib] (1000 nM) |  |  |  |  |  |  |  |  |  | 104 | 77.2 | 111 | 21.5 | 57.5 | 66 | 89.8 | 107 | 67 | 71.7 | 51.6 | 89.2 | 25.3 | 73.5 | 76.4 | 65.5 | 50 | 89.6
11 | CCN(CC)CCNC(=O)c1c(C)[nH]c(/C=C2\C(=O)Nc3ccc(F)cc32)c1C [Sunitinib] (100 nM) |  |  |  |  |  |  |  |  |  | 102 | 103 | 86.5 | 99.8 | 106 | 108 | 101 | 102 | 86 | 98.1 | 97.1 | 123 | 77 | 107 | 76.8 | 98.3 | 127 | 114
12 | Cc1nc(Nc2ncc(C(=O)Nc3c(C)cccc3Cl)s2)cc(N2CCN(CCO)CC2)n1 [Dasatinib] (100 nM) |  |  |  |  |  |  |  |  |  | 97.2 | 94.4 | 68.4 | 74 | 95.6 | 112 | 91.5 | 101 | 98.8 | 102 | 107 | 84.3 | 90.8 | 70.1 | 90.2 | 97.2 | 85.9 | 5.95
13 | Cc1ccc(Nc2nccc(N(C)c3ccc4c(C)n(C)nc4c3)n2)cc1S(N)(=O)=O [Pazopanib] (1000 nM) |  |  |  |  |  |  |  |  |  | 95.2 | 104 | 107 | 101 | 105 | 77 | 102 | 50 | 106 | 100 | 64.8 | 99.5 | 110 | 99.3 | 94.3 | 101 | 127 | 101

Source: the supplement of paper PMC4862054
